{
  "source": "patent US11129909B2",
  "about": "“Conjugate and block copolymer containing fluorescent chromophore and preparation method therefor and use thereof” (priority 2017, dated 2021)",
  "key": {"NQO1": {"biological_target": "NQO1 (Homo sapiens, UniProt P15559)", "sequence (P15559 whole entry, species assumed)": "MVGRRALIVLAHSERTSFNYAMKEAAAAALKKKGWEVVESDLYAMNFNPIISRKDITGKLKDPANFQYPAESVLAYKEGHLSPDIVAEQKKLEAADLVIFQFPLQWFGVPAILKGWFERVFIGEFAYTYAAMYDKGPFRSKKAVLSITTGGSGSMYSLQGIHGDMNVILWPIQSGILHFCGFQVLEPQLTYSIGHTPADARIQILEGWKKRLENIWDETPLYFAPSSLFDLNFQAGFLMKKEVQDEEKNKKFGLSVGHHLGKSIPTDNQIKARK", "assay": "Enzyme detection by antibody-probe conjugate: fluorescence/FRET change with NADPH/NQO1", "format": "biochemical", "details": "NADPH/NQO1 in water system, culture time of about 1 h; NAM emission 530 nm vs C1 emission 435 nm", "procedure": "In a culture time of about 1 h, a change of about 20 times the FRET ratio (intensity ratio of two emission peaks) can be seen (see inset). The above results indicated the occurrence of an efficient FRET process between the C1 coumarin linkage bond and the enzymatic-produced NAM residue."}, "[1]": {"test_system": "LS180 cells (normal CEA and lacking NQO1)", "assay": "CLSM detection of intracellular CEA and quinone oxidoreductase, LS180 cells", "format": "cell-based", "details": "LS180 cells co-cultured with conjugate", "excerpt": "(§1) Viable HepG2 cells (lacking CEA and NQO1), LS180 cells (normal CEA and lacking NQO1) and HT29 cells (normal CEA and normal NQO1) were co-cultured with QNAM-C1-ACEA antibody-probe conjugate."}, "[2]": {"test_system": "HT29 cells (normal CEA and normal NQO1)", "assay": "CLSM detection of intracellular CEA and quinone oxidoreductase, HT29 cells", "format": "cell-based", "details": "HT29 cells co-cultured with conjugate", "excerpt": "as §1"}, "[3]": {"test_system": "HepG2 cells (lacking CEA and NQO1)", "assay": "CLSM detection of intracellular CEA and quinone oxidoreductase, HepG2 cells", "format": "cell-based", "details": "HepG2 cells co-cultured with conjugate", "excerpt": "as §1"}},
  "data": [
    {"smiles": "COC(=O)CC(SC)C(=O)Nc1cc2ccc(-c3cn(CCN4C(=O)c5cccc6c(NC(=O)CC(C)(C)C7=C(C)C(=O)C(C)=C(C)C7=O)ccc(c56)C4=O)nn3)cc2oc1=O", "note": "(stereo not shown) [QNAM-C1-ACEA]", "values": [
      {"measurement": "change of the FRET ratio (intensity ratio of two emission peaks)", "setting": "NQO1", "value": "about 20 times"},
      {"measurement": "CLSM emission of C1 coumarin (blue) and NAM (green) in cells", "setting": "[1]", "value": "intermittent blue luminous points of C1 coumarin and few NAM green emission signals"},
      {"measurement": "CLSM emission of C1 coumarin (blue) and NAM (green) in cells", "setting": "[2]", "value": "green channel NAM emission was obviously enhanced"},
      {"measurement": "CLSM emission of C1 coumarin (blue) and NAM (green) in cells", "setting": "[3]", "value": "very low blue and green emission"}
    ]}
  ]
}
